Read-outs that look alike come from different tables or passages of the source. *1 amine or outer side, *2 acyl side, *3 side chain or, on linkers, in order; H or OH if unused. Where a SMILES comes first, the peptide text is derived from it. [ ]: non-standard residue; d: D form. The star is where a group is joined. ξ: configuration not given here. Benzoyl(3-COOH,5-NO2) = O=C(O)c1cc(C(=O)*)cc([N+](=O)[O-])c1; Pro(3R,4S-CMe2) = CC1(C)[C@@H]2[C@@H](C(=O)O)NC[C@@H]21; Benzoyl(2-COOH-4,5-Cl2) = O=C(O)c1cc(Cl)c(Cl)cc1C(=O)*; Nle(5E-ene,6-CO2Et) = CCOC(=O)/C=C/CC[C@H](N)C(=O)O; X1 = COC(=O)/C=C/CC[C@H](N[*:1])C(=O)[*:2]; Pro(4-methylene) = C=C1CN[C@H](C(=O)O)C1; Morpholine(3S-CO) = O=C(O)[C@@H]1COCCN1; Pro(4-oxo) = O=C1CN[C@H](C(=O)O)C1; Ala(cPr) = N[C@@H](CC1CC1)C(=O)O; Ile(3ξ) = CCC(C)[C@H](N)C(=O)O; Thr(3ξ) = CC(O)[C@H](N)C(=O)O; Chg = N[C@H](C(=O)O)C1CCCCC1; Tle = CC(C)(C)[C@H](N)C(=O)O; αMeP = C[C@@]1(C(=O)O)CCCN1; X6 = Cc1cccc(C)c1OCC(C)N*; Nle = CCCC[C@H](N)C(=O)O; NHIsopentyl = CC(C)CCN*; ξV = CC(C)C(N)C(=O)O; Alloc = C=CCOC(=O)*
Tests used:
[1] = molecular target: FXIII (Homo sapiens (Human), UniProt P00488); test: Inhibitory activity against FXIII (isopeptidase assay), Tables 3 and 4; type: biochemical;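 note: FXIIIa activity read with a peptide substrate derived from the α2-antiplasmin N-terminal dodecapeptide, FXIII activated beforehand at room temperature, inhibitor-free wells with DMSO buffer as control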
Procedure: (§1) FXIIIa activity has been determined using substrate A101 (Zedira GmbH, Darmstadt, Germany), which is based on the N-terminal dodecapeptide of α2-antipiasmin.
(§2) The mixture was incubated for 20 min at room temperature to activate FXIII. […] For measurements without inhibitor, 15 μL of assay buffer/2% (v/v) DMSO were added. All measurements were performed in triplicate. The respective IC50 values were calculated by non-linear regression using the MARS software package (BMG Labtech).

[2] = molecular target: TG2 (Homo sapiens (Human), UniProt P21980); test: Inhibitory activity against TG2 (isopeptidase assay), Tables 3 and 4; type: biochemical; conditions: for Selectivity: TG2 versus FXIII
Procedure: as §1, §2

[3] = in vitro; conditions: for half-life: plasma
Procedure: Further, the stability of compounds in plasma was determined as prerequisite for drug-likeness. Briefly, after spiking the chemical entities, the plasma was incubated at 37° C. At certain time points (e.g. at 15 and 120 minutes), 3 vol. cold MeOH were added to extract the compounds. After centrifugation, the supernatant was analyzed by HPLC. The half life was calculated based on the respective calibration curve.

[4] = tested on: whole human blood; test: Thromboelastometry (ROTEM) in whole human blood with t-PA; type: cell-based
Procedure: Clotting time (CT), clot formation time (CFT), maximum clot firmness (MCF) and lysis index at 60 min (LI60) were obtained using fresh whole blood in the ROTEM® delta device according to the manufacturer's instructions.

[5] = isopeptidase assay, Table 3, read-out: IC50 [nM] FXIII

Chain of FXIII (P00488 39-732): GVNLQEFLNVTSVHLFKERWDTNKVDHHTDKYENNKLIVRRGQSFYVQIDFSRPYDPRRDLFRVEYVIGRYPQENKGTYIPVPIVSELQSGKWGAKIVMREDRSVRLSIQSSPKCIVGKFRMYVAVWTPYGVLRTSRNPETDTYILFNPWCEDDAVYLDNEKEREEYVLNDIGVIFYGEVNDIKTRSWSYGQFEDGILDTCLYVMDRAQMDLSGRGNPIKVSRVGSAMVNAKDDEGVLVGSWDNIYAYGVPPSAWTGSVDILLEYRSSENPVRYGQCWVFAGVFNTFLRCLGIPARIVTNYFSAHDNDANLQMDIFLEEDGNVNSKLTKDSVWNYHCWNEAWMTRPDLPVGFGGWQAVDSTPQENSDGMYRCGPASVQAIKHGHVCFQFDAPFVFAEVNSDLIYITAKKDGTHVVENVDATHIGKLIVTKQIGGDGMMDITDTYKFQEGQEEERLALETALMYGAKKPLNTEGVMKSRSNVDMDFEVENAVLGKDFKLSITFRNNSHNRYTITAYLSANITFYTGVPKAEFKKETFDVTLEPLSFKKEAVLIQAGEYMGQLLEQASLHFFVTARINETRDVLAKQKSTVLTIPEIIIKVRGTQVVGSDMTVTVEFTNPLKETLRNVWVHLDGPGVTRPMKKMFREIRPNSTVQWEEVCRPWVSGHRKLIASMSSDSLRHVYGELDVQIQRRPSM
Chain of TG2 (P21980 whole entry): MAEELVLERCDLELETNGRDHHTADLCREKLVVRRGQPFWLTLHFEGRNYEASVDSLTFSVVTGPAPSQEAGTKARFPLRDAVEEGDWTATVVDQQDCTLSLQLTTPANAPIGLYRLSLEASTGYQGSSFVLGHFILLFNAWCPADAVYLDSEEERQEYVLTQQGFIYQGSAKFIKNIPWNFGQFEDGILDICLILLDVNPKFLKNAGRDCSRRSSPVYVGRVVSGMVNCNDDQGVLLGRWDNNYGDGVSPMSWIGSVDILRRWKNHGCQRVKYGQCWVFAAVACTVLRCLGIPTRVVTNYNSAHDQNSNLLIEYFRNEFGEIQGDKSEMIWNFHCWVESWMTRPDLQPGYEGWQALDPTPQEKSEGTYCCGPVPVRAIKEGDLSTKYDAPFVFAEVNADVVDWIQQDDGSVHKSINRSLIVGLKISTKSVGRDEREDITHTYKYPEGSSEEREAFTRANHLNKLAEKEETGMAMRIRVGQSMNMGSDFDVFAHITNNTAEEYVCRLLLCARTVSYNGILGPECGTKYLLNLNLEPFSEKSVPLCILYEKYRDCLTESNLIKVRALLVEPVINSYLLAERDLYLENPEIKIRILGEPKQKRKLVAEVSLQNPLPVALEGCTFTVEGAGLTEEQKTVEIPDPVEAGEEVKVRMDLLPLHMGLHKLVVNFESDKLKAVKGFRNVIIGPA

Compound | IC50 [1, 5] [nM] | Selectivity ([2]; isopeptidase assay, Table 3) | IC50 ([2]; isopeptidase assay, Table 3, read-out: IC50 [nM] TG2) [nM] | recovery at 2 h [3] [%] | IC50 ([1]; Table 4, read-out: FXIII IC50) [nM] | Selectivity ([2]; Table 4) | IC50 ([2]; Table 4, read-out: TG2 IC50) [nM] | increase in clot lysis at 60 minutes compared to control (LI60c) [4] [%] | half-life [3] [min]
COC(=O)/C=C/CC[C@H](NC(=O)c1cc(Cl)c(Cl)cc1C(=O)O)C(=O)N[C@H](C(=O)N1C[C@H]2[C@@H]([C@H]1C(=O)N[C@H](C(=O)N[C@H](C(N)=O)C1CCCCC1)C1CCCCC1)C2(C)C)C(C)(C)C [Compound 29] ({Benzoyl(2-COOH-4,5-Cl2)}-[X1][Tle][Pro(3R,4S-CMe2)][Chg][Chg]-NH2) | 24 | 1.3 | 32 | > 75 | – | – | – | – | –
COC(=O)/C=C/CC[C@H](NC(=O)c1cc(C(=O)O)cc([N+](=O)[O-])c1)C(=O)N[C@H](C(=O)N1CC(=O)C[C@H]1C(=O)N[C@@H](CC(C)C)C(=O)N1CCC[C@@]1(C)C(=O)NC(C)COc1c(C)cccc1C)C(C)(C)C (some centres unmarked) [Compound 30] ({Benzoyl(3-COOH,5-NO2)}-[X1][Tle][Pro(4-oxo)]L[αMeP]-X6) | 15 | 1.1 | – | > 75 | – | – | – | – | –
CCOC(=O)/C=C/CC[C@H](NC(=O)c1cc(Cl)c(Cl)cc1C(=O)O)C(=O)N[C@H](C(=O)N1CCC[C@H]1C(=O)N[C@@H](CC(C)C)C(=O)N[C@H](C(N)=O)C1CCCCC1)C(C)C [Compound 38] ({Benzoyl(2-COOH-4,5-Cl2)}-[Nle(5E-ene,6-CO2Et)]VPL[Chg]-NH2) | – | – | – | > 75 | 47 | 16.17 | 760 | – | –
CCOC(=O)/C=C/CC[C@H](NC(=O)c1cc(C(=O)O)cc([N+](=O)[O-])c1)C(=O)N[C@H](C(=O)N1CC(=O)C[C@H]1C(=O)N[C@H](C(=O)NCCC(C)C)C1CCCCC1)C(C)(C)C [Compound 40] ({Benzoyl(3-COOH,5-NO2)}-[Nle(5E-ene,6-CO2Et)][Tle][Pro(4-oxo)][Chg]-NHIsopentyl) | – | – | – | > 75 | 81 | 10.47 | 848 | – | –
C=C1C[C@@H](C(=O)N[C@@H](CC(C)C)C(=O)N2CCC[C@H]2C(=O)O)N(C(=O)[C@@H](NC(=O)[C@H](CC/C=C/C(=O)OC)NC(=O)c2cc(C(=O)O)cc([N+](=O)[O-])c2)C(C)(C)C)C1 [Compound 43] ({Benzoyl(3-COOH,5-NO2)}-[X1][Tle][Pro(4-methylene)]LP-OH) | – | – | – | > 75 | 158 | 5.42 | 856 | 14 | –
COC(=O)/C=C/CC[C@H](NC(=O)[C@@H]1CC(=O)CN1)C(=O)N[C@@H](CC1CC1)C(=O)N1CCOC[C@H]1C(=O)N[C@@H](CC(C)C)C(=O)N1CCC[C@H]1C(=O)O [Compound 44] (H-[Pro(4-oxo)][X1][Ala(cPr)][Morpholine(3S-CO)]LP-OH) | – | – | – | > 75 | 141 | 5.66 | 798 | 11 | –
CCCC[C@H](NC(=O)[C@H](CC/C=C/C(=O)OC)NC(=O)[C@@H](CC(=O)O)NC(C)=O)C(=O)N[C@@H](CCCC)C(=O)N[C@@H](CC(C)C)C(=O)N1CCC[C@H]1C(=O)N[C@@H](Cc1c[nH]c2ccccc12)C(=O)O [Ref. 13, reference compound] (Ac-[dD][X1][Nle][Nle]LPW-OH) | – | – | – | – | 465 | 6.02 | 2800 | – | < 15
CCCC[C@H](NC(=O)[C@H](CC/C=C/C(=O)OC)NC(=O)[C@@H](CC(=O)O)NC(C)=O)C(=O)N[C@@H](CCCC)C(=O)N[C@@H](CC(C)C)C(=O)N1CCC[C@H]1C(=O)O [Ref. 14, reference compound] (Ac-[dD][X1][Nle][Nle]LP-OH) | – | – | – | – | > 10 | – | 2150 | – | < 15
CCCC[C@H](NC(=O)[C@H](CC/C=C/C(=O)OC)NC(=O)[C@@H]1CC(=O)CN1)C(=O)N[C@H](C(=O)N[C@@H](CC(C)C)C(=O)N1CCC[C@H]1C(=O)N[C@@H](Cc1c[nH]c2ccccc12)C(=O)O)C(C)CC (some centres unmarked) [Ref. 15, reference compound] (H-[Pro(4-oxo)][X1][Nle][Ile(3ξ)]LPW-OH) | – | – | – | – | 226 | 0.52 | 117 | – | < 15
CCCC[C@H](NC(=O)[C@H](CC/C=C/C(=O)OC)NC(=O)[C@@H]1CC(=O)CN1)C(=O)N[C@H](C(=O)N[C@@H](CC(C)C)C(=O)N1CCC[C@H]1C(=O)O)C(C)CC (some centres unmarked) [Ref. 16, reference compound] (H-[Pro(4-oxo)][X1][Nle][Ile(3ξ)]LP-OH) | – | – | – | – | > 10 | – | 196 | – | < 15
COC(=O)/C=C/CC[C@H](NC(=O)[C@H](CC(N)=O)NC(C)=O)C(=O)N[C@@H](CCC(=O)O)C(=O)N[C@@H](CCC(N)=O)C(=O)N[C@H](C(=O)N[C@@H](CO)C(=O)N1CCC[C@H]1C(=O)N[C@@H](CC(C)C)C(=O)N[C@H](C(=O)N[C@@H](CC(C)C)C(=O)N[C@@H](CC(C)C)C(=O)N[C@@H](CCCCN)C(=O)O)C(C)O)C(C)C (some centres unmarked) [Ref. 17, reference compound] (Ac-N[X1]EQVSPL[Thr(3ξ)]LLK-OH) | – | – | – | – | 420 | 0.54 | 227 | – | < 15
COC(=O)/C=C/CC[C@H](NC(=O)[C@H](CC(N)=O)NC(C)=O)C(=O)N[C@@H](CCC(=O)O)C(=O)N[C@@H](CCC(N)=O)C(=O)N[C@H](C(=O)N[C@@H](CO)C(=O)N1CCC[C@H]1C(=O)N[C@@H](CC(C)C)C(=O)N[C@H](C(=O)N[C@@H](CC(C)C)C(=O)N[C@@H](CC(C)C)C(=O)O)C(C)O)C(C)C (some centres unmarked) [Ref. 18, reference compound] (Ac-N[X1]EQVSPL[Thr(3ξ)]LL-OH) | – | – | – | – | 995 | 0.34 | 341 | – | < 15
CCCC[C@H](NC(=O)[C@H](CC/C=C/C(=O)OC)NC(=O)[C@@H](CC(=O)O)NC(C)=O)C(=O)N[C@@H](CCCC)C(=O)N[C@@H](CC(C)C)C(=O)N1CCC[C@H]1C(=O)N[C@@H](Cc1c[nH]c2ccccc12)C(=O)N1CCC[C@H]1C(=O)O [Ref. 22, reference compound] (Ac-[dD][X1][Nle][Nle]LPWP-OH) | – | – | – | – | 110 | 26.54 | 2920 | – | < 15
CCCC[C@H](NC(=O)[C@H](CC/C=C/C(=O)OC)NC(=O)[C@@H]1CC(=O)CN1)C(=O)N[C@H](C(=O)N[C@@H](CC(C)C)C(=O)N1CCC[C@H]1C(=O)N[C@@H](Cc1c[nH]c2ccccc12)C(=O)N1CCC[C@H]1C(=O)O)C(C)CC (some centres unmarked) [Ref. 23, reference compound] (H-[Pro(4-oxo)][X1][Nle][Ile(3ξ)]LPWP-OH) | – | – | – | – | 56 | 1.82 | 102 | – | < 15
C=CCOC(=O)NCCCC[C@H](NC(=O)[C@H](CC(C)C)NC(=O)[C@H](CC(C)C)NC(=O)[C@@H](NC(=O)[C@H](CC(C)C)NC(=O)[C@@H]1CCCN1C(=O)[C@H](CO)NC(=O)C(NC(=O)[C@H](CCC(N)=O)NC(=O)[C@H](CCC(=O)O)NC(=O)[C@H](CC/C=C/C(=O)OC)NC(=O)[C@H](CC(N)=O)NC(C)=O)C(C)C)C(C)O)C(=O)O (some centres unmarked) [Ref. 24, reference compound] (Ac-N[X1]EQ[ξV]SPL[Thr(3ξ)]LLK(Alloc)-OH) | – | – | – | – | 306 | 0.55 | 169 | – | < 15

Source: US11472838B2, “Inhibitors of blood coagulation factor XIII” (Zedira GmbH, priority 2018, dated 2022)
